Test results reported in PubChem BioAssay (NCI).
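GI50 marks 50% less growth. TGI is the concentration that stops growth completely.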

Experiments:
Experiment in all cases: NCI-60 cell line screen, 384-well format
786-0 renal = tested on: 786-0 renal
A498 renal = tested on: A498 renal
A549 NSCLC = tested on: A549 NSCLC
ACHN renal = tested on: ACHN renal
BT-549 breast = tested on: BT-549 breast
CAKI-1 renal = tested on: CAKI-1 renal
CCRF-CEM leukemia = tested on: CCRF-CEM leukemia
COLO 205 colon = tested on: COLO 205 colon
DU-145 prostate = tested on: DU-145 prostate
HCC-2998 colon = tested on: HCC-2998 colon
HCT-116 colon = tested on: HCT-116 colon
HCT-15 colon = tested on: HCT-15 colon
HL-60(TB) leukemia = tested on: HL-60(TB) leukemia
HOP-62 NSCLC = tested on: HOP-62 NSCLC
HOP-92 NSCLC = tested on: HOP-92 NSCLC
HT29 colon = tested on: HT29 colon
IGROV1 ovarian = tested on: IGROV1 ovarian
KM12 colon = tested on: KM12 colon
LOX IMVI melanoma = tested on: LOX IMVI melanoma
M14 melanoma = tested on: M14 melanoma
MALME-3M melanoma = tested on: MALME-3M melanoma
MCF7 breast = tested on: MCF7 breast
MDA-MB-231 breast = tested on: MDA-MB-231 breast
MDA-MB-435 melanoma = tested on: MDA-MB-435 melanoma
MDA-MB-468 breast = tested on: MDA-MB-468 breast
MOLT-4 leukemia = tested on: MOLT-4 leukemia
NCI-H226 lung = tested on: NCI-H226 lung
NCI-H23 lung = tested on: NCI-H23 lung
NCI-H322M lung = tested on: NCI-H322M lung
NCI-H460 NSCLC = tested on: NCI-H460 NSCLC
NCI-H522 lung = tested on: NCI-H522 lung
NCI/ADR-RES ovarian = tested on: NCI/ADR-RES ovarian
OVCAR-3 ovarian = tested on: OVCAR-3 ovarian
OVCAR-4 ovarian = tested on: OVCAR-4 ovarian
OVCAR-5 ovarian = tested on: OVCAR-5 ovarian
OVCAR-8 ovarian = tested on: OVCAR-8 ovarian
PC-3 prostate = tested on: PC-3 prostate
RPMI-8226 leukemia = tested on: RPMI-8226 leukemia
RXF 393 renal = tested on: RXF 393 renal
SF-268 CNS = tested on: SF-268 CNS
SF-295 CNS = tested on: SF-295 CNS
SF-539 CNS = tested on: SF-539 CNS
SK-MEL-2 melanoma = tested on: SK-MEL-2 melanoma
SK-MEL-28 melanoma = tested on: SK-MEL-28 melanoma
SK-MEL-5 melanoma = tested on: SK-MEL-5 melanoma
SK-OV-3 ovarian = tested on: SK-OV-3 ovarian
SN12C renal = tested on: SN12C renal
SNB-19 CNS = tested on: SNB-19 CNS
SR leukemia = tested on: SR leukemia
SW-620 colon = tested on: SW-620 colon
T-47D breast = tested on: T-47D breast
TK-10 renal = tested on: TK-10 renal
U251 glioblastoma = tested on: U251 glioblastoma
UACC-257 melanoma = tested on: UACC-257 melanoma
UACC-62 melanoma = tested on: UACC-62 melanoma
UO-31 renal = tested on: UO-31 renal

`Cc1ncc(NC(=O)c2ccc(CN3CCN(C)CC3)c(C(F)(F)F)c2)cc1Nc1nccc(-c2cccnc2)n1` was tested, and the GI50 (786-0 renal) was 1510 nM, the TGI (786-0 renal) was 2890 nM and the GI50 (A498 renal) was 1890 nM. It also gave a TGI (A498 renal) of 3.55 µM, a GI50 (A549 NSCLC) of 2540 nM and a TGI (A549 NSCLC) of 8.6 µM. For the same compound, the GI50 (ACHN renal) was 12.6 µM, the TGI (ACHN renal) was 25.2 µM and the GI50 (BT-549 breast) was 2170 nM. The TGI (BT-549 breast) was 3.69 µM, the GI50 (CAKI-1 renal) was 7.3 µM and the TGI (CAKI-1 renal) was 19.4 µM. It also gave a GI50 (CCRF-CEM leukemia) of 1610 nM, a TGI (CCRF-CEM leukemia) of 2960 nM and a GI50 (COLO 205 colon) of 1270 nM. For the same compound, the TGI (COLO 205 colon) was 14.5 µM, the GI50 (DU-145 prostate) was 15.4 µM and the TGI (DU-145 prostate) was 28.8 µM. For the same compound, the GI50 (HCC-2998 colon) was 3.72 µM, the TGI (HCC-2998 colon) was 17.6 µM and the GI50 (HCT-116 colon) was 1180 nM. It also gave a TGI (HCT-116 colon) of 2430 nM, a GI50 (HCT-15 colon) of 1820 nM and a TGI (HCT-15 colon) of 3.6 µM. The GI50 (HL-60(TB) leukemia) was 956 nM, the TGI (HL-60(TB) leukemia) was 2120 nM and the GI50 (HOP-62 NSCLC) was 13.8 µM. It also gave a TGI (HOP-62 NSCLC) of 26.8 µM, a GI50 (HOP-92 NSCLC) of 6.68 µM and a TGI (HOP-92 NSCLC) of 19.4 µM. The GI50 (HT29 colon) was 1040 nM, the TGI (HT29 colon) was 2220 nM and the GI50 (IGROV1 ovarian) was 13.2 µM. For the same compound, the TGI (IGROV1 ovarian) was 26 µM, the GI50 (KM12 colon) was 1570 nM and the TGI (KM12 colon) was 3.11 µM. The GI50 (LOX IMVI melanoma) was 1950 nM, the TGI (LOX IMVI melanoma) was 3.37 µM and the GI50 (M14 melanoma) was 798 nM. The TGI (M14 melanoma) was 12.3 µM, the GI50 (MALME-3M melanoma) was 289 nM and the TGI (MALME-3M melanoma) was 1460 nM. It also gave a GI50 (MCF7 breast) of 1430 nM, a TGI (MCF7 breast) of 2790 nM and a GI50 (MDA-MB-231 breast) of 1550 nM. It also gave a TGI (MDA-MB-231 breast) of 2980 nM, a GI50 (MDA-MB-435 melanoma) of 4.56 µM and a TGI (MDA-MB-435 melanoma) of 19.2 µM. It also gave a GI50 (MDA-MB-468 breast) of 10.8 µM, a TGI (MDA-MB-468 breast) of 22.8 µM and a GI50 (MOLT-4 leukemia) of 1280 nM. For the same compound, the TGI (MOLT-4 leukemia) was 2540 nM, the GI50 (NCI-H226 lung) was 12.4 µM and the TGI (NCI-H226 lung) was 25 µM. The GI50 (NCI-H23 lung) was 13.7 µM, the TGI (NCI-H23 lung) was 26.7 µM and the GI50 (NCI-H322M lung) was 10.9 µM. It also gave a TGI (NCI-H322M lung) of 22.9 µM, a GI50 (NCI-H460 NSCLC) of 1650 nM and a TGI (NCI-H460 NSCLC) of 3.26 µM. The GI50 (NCI-H522 lung) was 3.05 µM, the TGI (NCI-H522 lung) was 17.8 µM and the GI50 (NCI/ADR-RES ovarian) was 10.6 µM. It also gave a TGI (NCI/ADR-RES ovarian) of 22.4 µM, a GI50 (OVCAR-3 ovarian) of 1740 nM and a TGI (OVCAR-3 ovarian) of 3.31 µM. The GI50 (OVCAR-4 ovarian) was 2630 nM, the TGI (OVCAR-4 ovarian) was 14.1 µM and the GI50 (OVCAR-5 ovarian) was 14.4 µM. The TGI (OVCAR-5 ovarian) was 27.6 µM, the GI50 (OVCAR-8 ovarian) was 11.3 µM and the TGI (OVCAR-8 ovarian) was 23.5 µM. For the same compound, the GI50 (PC-3 prostate) was 13.6 µM, the TGI (PC-3 prostate) was 26.6 µM and the GI50 (RPMI-8226 leukemia) was 745 nM. The TGI (RPMI-8226 leukemia) was 2000 nM, the GI50 (RXF 393 renal) was 1660 nM and the TGI (RXF 393 renal) was 3.59 µM. For the same compound, the GI50 (SF-268 CNS) was 10.4 µM, the TGI (SF-268 CNS) was 22.2 µM and the GI50 (SF-295 CNS) was 19.5 µM. It also gave a TGI (SF-295 CNS) of 33.7 µM, a GI50 (SF-539 CNS) of 1320 nM and a TGI (SF-539 CNS) of 2600 nM. The GI50 (SK-MEL-2 melanoma) was 2460 nM, the TGI (SK-MEL-2 melanoma) was 8.05 µM and the GI50 (SK-MEL-28 melanoma) was 1780 nM. For the same compound, the TGI (SK-MEL-28 melanoma) was 14.9 µM, the GI50 (SK-MEL-5 melanoma) was 1440 nM and the TGI (SK-MEL-5 melanoma) was 16.4 µM. The GI50 (SK-OV-3 ovarian) was 1940 nM, the TGI (SK-OV-3 ovarian) was 3.89 µM and the GI50 (SN12C renal) was 17.4 µM. The TGI (SN12C renal) was 31.2 µM, the GI50 (SNB-19 CNS) was 15.7 µM and the TGI (SNB-19 CNS) was 29.2 µM. For the same compound, the GI50 (SR leukemia) was 1660 nM, the TGI (SR leukemia) was 3.02 µM and the GI50 (SW-620 colon) was 1840 nM. It also gave a TGI (SW-620 colon) of 3.29 µM, a GI50 (T-47D breast) of 12.1 µM and a TGI (T-47D breast) of 24.6 µM. For the same compound, the GI50 (TK-10 renal) was 12.9 µM, the TGI (TK-10 renal) was 25.5 µM and the GI50 (U251 glioblastoma) was 1820 nM. The TGI (U251 glioblastoma) was 3.31 µM, the GI50 (UACC-257 melanoma) was 1060 nM and the TGI (UACC-257 melanoma) was 2240 nM. It also gave a GI50 (UACC-62 melanoma) of 1350 nM, a TGI (UACC-62 melanoma) of 13.8 µM and a GI50 (UO-31 renal) of 11.4 µM. The TGI (UO-31 renal) was 23.5 µM.
